Numbers after ± are expanded uncertainties.
Legend:
[1] = xn = mol fraction of the nth substance listed; conditions: 96 kPa, Liquid, Vibrating tube method
[2] = refractive index (Na D-line) (dimensionless); xn = mol fraction of the nth substance listed; conditions: 298.15 K, 96 kPa, Liquid, Standard Abbe refractometry

CCC=O [propanal] + CCOS(=O)(=O)[O-].CCn1cc[n+](C)c1
[1]
Conditions | mass density [kg/m3]
288.14 K, x1 = 0.1702 | 1215.95 ± 2.3
288.14 K, x1 = 0.4184 | 1170.49 ± 1.4
288.14 K, x1 = 1 | 807.26 ± 0.24
288.15 K, x1 = 0.2146 | 1209 ± 2.1
288.15 K, x1 = 0.3671 | 1182.78 ± 1.6
288.15 K, x1 = 0.5246 | 1139.5 ± 1.1
288.15 K, x1 = 0.616 | 1108.79 ± 0.93
288.15 K, x1 = 0.7074 | 1069.7 ± 0.8
288.15 K, x1 = 0.8104 | 1012.95 ± 0.8
288.15 K, x1 = 0.9022 | 936.46 ± 1
288.15 K, x1 = 0.9521 | 876.3 ± 1.4
288.16 K, x1 = 0.077 | 1227.88 ± 2.6
293.15 K, x1 = 0.077 | 1224.4 ± 2.6
293.15 K, x1 = 0.1702 | 1212.43 ± 2.2
293.15 K, x1 = 0.5246 | 1136.2 ± 1.1
293.15 K, x1 = 0.616 | 1105.04 ± 0.92
293.15 K, x1 = 0.7074 | 1066.43 ± 0.8
293.15 K, x1 = 1 | 801.06 ± 0.24
293.16 K, x1 = 0.2146 | 1205.39 ± 2.1
293.16 K, x1 = 0.3671 | 1178.94 ± 1.6
293.16 K, x1 = 0.4184 | 1166.66 ± 1.4
293.16 K, x1 = 0.8104 | 1008.26 ± 0.81
293.16 K, x1 = 0.9022 | 931.16 ± 0.99
293.16 K, x1 = 0.9521 | 870.71 ± 1.4
298.15 K, x1 = 0.1702 | 1208.92 ± 2.2
298.15 K, x1 = 0.5246 | 1132.3 ± 1.1
298.15 K, x1 = 0.616 | 1101.02 ± 0.92
298.15 K, x1 = 1 | 794.85 ± 0.24
298.16 K, x1 = 0.077 | 1220.94 ± 2.6
298.16 K, x1 = 0.2146 | 1201.81 ± 2.1
298.16 K, x1 = 0.3671 | 1175.21 ± 1.6
298.16 K, x1 = 0.4184 | 1162.88 ± 1.4
298.16 K, x1 = 0.7074 | 1062.18 ± 0.8
298.16 K, x1 = 0.8104 | 1003.73 ± 0.81
298.16 K, x1 = 0.9022 | 925.91 ± 1
298.16 K, x1 = 0.9521 | 865.19 ± 1.4
303.15 K, x1 = 0.077 | 1217.48 ± 2.6
303.15 K, x1 = 0.5246 | 1128.46 ± 1.1
303.15 K, x1 = 0.7074 | 1058.06 ± 0.8
303.15 K, x1 = 1 | 788.72 ± 0.24
303.16 K, x1 = 0.1702 | 1205.39 ± 2.2
303.16 K, x1 = 0.2146 | 1198.24 ± 2
303.16 K, x1 = 0.3671 | 1171.5 ± 1.5
303.16 K, x1 = 0.4184 | 1159.08 ± 1.4
303.16 K, x1 = 0.616 | 1097.06 ± 0.91
303.16 K, x1 = 0.8104 | 999.38 ± 0.81
303.16 K, x1 = 0.9022 | 920.77 ± 1
303.16 K, x1 = 0.9521 | 859.8 ± 1.4
308.15 K, x1 = 0.077 | 1214.04 ± 2.6
308.15 K, x1 = 0.2146 | 1194.69 ± 2
308.15 K, x1 = 0.3671 | 1167.83 ± 1.5
308.15 K, x1 = 0.4184 | 1155.38 ± 1.4
308.15 K, x1 = 0.8104 | 995.49 ± 0.82
308.15 K, x1 = 0.9022 | 915.5 ± 1
308.15 K, x1 = 0.9521 | 854.41 ± 1.4
308.16 K, x1 = 0.1702 | 1201.91 ± 2.2
308.16 K, x1 = 0.5246 | 1124.75 ± 1.1
308.16 K, x1 = 0.616 | 1093.39 ± 0.9
308.16 K, x1 = 0.7074 | 1054.45 ± 0.79
308.16 K, x1 = 1 | 782.55 ± 0.24
313.14 K, x1 = 0.1702 | 1198.61 ± 2.2
313.14 K, x1 = 0.616 | 1089.32 ± 0.9
313.14 K, x1 = 0.7074 | 1050.7 ± 0.8
313.15 K, x1 = 0.077 | 1210.68 ± 2.5
313.15 K, x1 = 0.3671 | 1164.21 ± 1.5
313.15 K, x1 = 0.4184 | 1151.8 ± 1.4
313.15 K, x1 = 0.5246 | 1121.2 ± 1.1
313.15 K, x1 = 0.8104 | 990.4 ± 0.83
313.15 K, x1 = 0.9022 | 910.11 ± 1
313.15 K, x1 = 0.9521 | 848.67 ± 1.4
313.15 K, x1 = 1 | 776.53 ± 0.24
313.16 K, x1 = 0.2146 | 1191.34 ± 2

[2]
Conditions | refractive index
x1 = 0.077 | 1.4789 ± 0.0008
x1 = 0.1702 | 1.4768 ± 0.0007
x1 = 0.2146 | 1.473 ± 0.0007
x1 = 0.3671 | 1.4641 ± 0.0007
x1 = 0.4184 | 1.4627 ± 0.0007
x1 = 0.5246 | 1.4532 ± 0.0006
x1 = 0.616 | 1.4467 ± 0.0006
x1 = 0.7074 | 1.4369 ± 0.0006
x1 = 0.8104 | 1.426 ± 0.0006
x1 = 0.9022 | 1.41 ± 0.0006
x1 = 0.9521 | 1.3854 ± 0.0007
x1 = 1 | 1.3648 ± 0.0005

CCCCC=O [pentanal] + CCOS(=O)(=O)[O-].CCn1cc[n+](C)c1
[1]
Conditions | mass density [kg/m3]
288.15 K, x1 = 0.0792 | 1218.05 ± 2.6
288.15 K, x1 = 0.101 | 1213.67 ± 2.5
288.15 K, x1 = 0.3008 | 1168.57 ± 1.7
288.15 K, x1 = 0.4074 | 1139.93 ± 1.4
288.15 K, x1 = 0.6047 | 1073.97 ± 0.88
288.15 K, x1 = 0.7012 | 1036.82 ± 0.73
288.15 K, x1 = 0.897 | 935.22 ± 0.7
288.15 K, x1 = 0.9513 | 896.87 ± 1.2
288.15 K, x1 = 1 | 814.15 ± 0.24
288.16 K, x1 = 0.2039 | 1191.69 ± 2.1
288.16 K, x1 = 0.5048 | 1109.32 ± 1.1
288.16 K, x1 = 0.8024 | 990.74 ± 0.66
293.14 K, x1 = 0.0792 | 1215 ± 2.6
293.14 K, x1 = 1 | 809.45 ± 0.24
293.15 K, x1 = 0.101 | 1210.75 ± 2.5
293.15 K, x1 = 0.2039 | 1188.69 ± 2.1
293.15 K, x1 = 0.3008 | 1165.47 ± 1.7
293.15 K, x1 = 0.4074 | 1136.9 ± 1.4
293.15 K, x1 = 0.5048 | 1106.25 ± 1.1
293.15 K, x1 = 0.6047 | 1070.53 ± 0.88
293.15 K, x1 = 0.7012 | 1033.26 ± 0.73
293.15 K, x1 = 0.8024 | 986.74 ± 0.67
293.15 K, x1 = 0.897 | 931.08 ± 0.7
293.15 K, x1 = 0.9513 | 892.5 ± 1.2
298.14 K, x1 = 0.0792 | 1211.93 ± 2.6
298.14 K, x1 = 0.101 | 1207.59 ± 2.5
298.14 K, x1 = 0.2039 | 1185.49 ± 2
298.14 K, x1 = 0.3008 | 1162.15 ± 1.7
298.14 K, x1 = 0.4074 | 1133.5 ± 1.4
298.14 K, x1 = 0.5048 | 1102.7 ± 1.1
298.14 K, x1 = 0.6047 | 1066.69 ± 0.87
298.14 K, x1 = 0.7012 | 1029.35 ± 0.72
298.14 K, x1 = 0.8024 | 982.52 ± 0.67
298.14 K, x1 = 0.897 | 926.62 ± 0.7
298.14 K, x1 = 0.9513 | 887.82 ± 1.2
298.14 K, x1 = 1 | 804.73 ± 0.24
303.14 K, x1 = 0.101 | 1204.47 ± 2.5
303.14 K, x1 = 0.2039 | 1182.28 ± 2
303.14 K, x1 = 0.3008 | 1158.83 ± 1.7
303.14 K, x1 = 0.4074 | 1130.07 ± 1.4
303.14 K, x1 = 0.5048 | 1099.13 ± 1.1
303.14 K, x1 = 0.6047 | 1062.78 ± 0.87
303.14 K, x1 = 0.7012 | 1025.33 ± 0.72
303.14 K, x1 = 0.8024 | 978.11 ± 0.67
303.14 K, x1 = 0.897 | 921.84 ± 0.7
303.14 K, x1 = 0.9513 | 882.85 ± 1.2
303.15 K, x1 = 0.0792 | 1208.72 ± 2.5
303.15 K, x1 = 1 | 799.97 ± 0.24
308.14 K, x1 = 0.101 | 1201.4 ± 2.4
308.14 K, x1 = 0.2039 | 1179.03 ± 2
308.14 K, x1 = 0.4074 | 1126.55 ± 1.3
308.14 K, x1 = 0.5048 | 1095.35 ± 1.1
308.14 K, x1 = 0.6047 | 1058.77 ± 0.86
308.14 K, x1 = 0.7012 | 1021.17 ± 0.72
308.14 K, x1 = 0.897 | 916.87 ± 0.71
308.14 K, x1 = 0.9513 | 877.74 ± 1.2
308.15 K, x1 = 0.0792 | 1205.39 ± 2.5
308.15 K, x1 = 0.3008 | 1155.36 ± 1.7
308.15 K, x1 = 0.8024 | 973.48 ± 0.67
308.15 K, x1 = 1 | 795.17 ± 0.24
313.14 K, x1 = 0.0792 | 1201.93 ± 2.5
313.14 K, x1 = 0.2039 | 1175.7 ± 2
313.14 K, x1 = 0.4074 | 1122.78 ± 1.3
313.14 K, x1 = 0.5048 | 1091.33 ± 1.1
313.14 K, x1 = 0.6047 | 1054.63 ± 0.86
313.14 K, x1 = 0.7012 | 1016.96 ± 0.72
313.14 K, x1 = 0.897 | 911.86 ± 0.69
313.14 K, x1 = 0.9513 | 872.76 ± 1.2
313.14 K, x1 = 1 | 790.33 ± 0.24
313.15 K, x1 = 0.101 | 1198.11 ± 2.4
313.15 K, x1 = 0.3008 | 1151.83 ± 1.7
313.15 K, x1 = 0.8024 | 966.65 ± 0.67
318.14 K, x1 = 0.0792 | 1198.39 ± 2.5
318.14 K, x1 = 0.2039 | 1172.28 ± 2
318.14 K, x1 = 0.5048 | 1087.33 ± 1.1
318.14 K, x1 = 0.6047 | 1050.4 ± 0.85
318.14 K, x1 = 0.7012 | 1012.64 ± 0.72
318.14 K, x1 = 0.8024 | 962.44 ± 0.68
318.14 K, x1 = 0.897 | 906.82 ± 0.7
318.14 K, x1 = 0.9513 | 867.68 ± 1.2
318.14 K, x1 = 1 | 785.46 ± 0.24
318.15 K, x1 = 0.101 | 1194.8 ± 2.4
318.15 K, x1 = 0.3008 | 1148.23 ± 1.6
318.15 K, x1 = 0.4074 | 1119.06 ± 1.3
323.14 K, x1 = 0.0792 | 1195.73 ± 2.5
323.14 K, x1 = 0.2039 | 1168.79 ± 2
323.14 K, x1 = 0.5048 | 1083.27 ± 1.1
323.14 K, x1 = 0.6047 | 1046.09 ± 0.85
323.14 K, x1 = 0.8024 | 959.29 ± 0.68
323.14 K, x1 = 0.9513 | 862.54 ± 1.2
323.14 K, x1 = 1 | 780.55 ± 0.24
323.15 K, x1 = 0.101 | 1191.43 ± 2.4
323.15 K, x1 = 0.3008 | 1144.59 ± 1.6
323.15 K, x1 = 0.4074 | 1115.15 ± 1.3
323.15 K, x1 = 0.7012 | 1008.39 ± 0.71
323.15 K, x1 = 0.897 | 901.88 ± 0.72

[2]
Conditions | refractive index
x1 = 0.0792 | 1.4793 ± 0.0008
x1 = 0.101 | 1.4788 ± 0.0008
x1 = 0.2039 | 1.4759 ± 0.0007
x1 = 0.3008 | 1.4718 ± 0.0007
x1 = 0.4074 | 1.4672 ± 0.0007
x1 = 0.5048 | 1.4621 ± 0.0006
x1 = 0.6047 | 1.4554 ± 0.0006
x1 = 0.7012 | 1.4486 ± 0.0006
x1 = 0.8024 | 1.4403 ± 0.0006
x1 = 0.897 | 1.431 ± 0.0006
x1 = 0.9513 | 1.4231 ± 0.0006
x1 = 1 | 1.396 ± 0.0005
